For the assay, the target named is T1, F508delCFTR (Homo sapiens, UniProt P13569, DEL508-508).
T1 construct: expressed in transfected cells; host or cells: CFBE41o- human lung-derived epithelial cells (CFBE4lo-F508delCFTR-HRP), doxycycline-inducible
Briefly: Cell Surface Expression-Horse Radish Peroxidase (CSE-HRP) Assay.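 As to Maximum % activity (with co-corrector): co-corrector and positive control are both the same reference corrector at 2 µM.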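 As to Maximum % activity (without co-corrector): percent of the 2 µM on-plate positive control corrector response above DMSO.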 Format: cell-based. The following applies: CSE-HRP; for Maximum % activity (with co-corrector): with co-corrector (2 μM); for Maximum % activity (with co-corrector) / Emax: maximum at any tested concentration, normalized to on-plate positive control; for Emax: without co-corrector, read-out: Maximum % activity (without co-corrector).

The mark [1] stands for this setting: test compound without co-corrector, read-out: EC50 (without co-corrector).
[2] abbreviates: with co-corrector (2 μM of 3-[(2R,4R)-4-({[1-(2,2-difluoro-1,3-benzodioxol-5-yl)cyclopropyl]carbonyl}amino)-7-methoxy-3,4-dihydro-2H-chromen-2-yl]benzoic acid), read-out: EC50 (with co-corrector).

The EC50 is the concentration that produces a half-maximal response.

Where two headings read alike, the source gives them in different places. A value given as a limit tells only on which side of the number the result lay.

T1 sequence (P13569 with tags, fused parts or gaps DEL508-508): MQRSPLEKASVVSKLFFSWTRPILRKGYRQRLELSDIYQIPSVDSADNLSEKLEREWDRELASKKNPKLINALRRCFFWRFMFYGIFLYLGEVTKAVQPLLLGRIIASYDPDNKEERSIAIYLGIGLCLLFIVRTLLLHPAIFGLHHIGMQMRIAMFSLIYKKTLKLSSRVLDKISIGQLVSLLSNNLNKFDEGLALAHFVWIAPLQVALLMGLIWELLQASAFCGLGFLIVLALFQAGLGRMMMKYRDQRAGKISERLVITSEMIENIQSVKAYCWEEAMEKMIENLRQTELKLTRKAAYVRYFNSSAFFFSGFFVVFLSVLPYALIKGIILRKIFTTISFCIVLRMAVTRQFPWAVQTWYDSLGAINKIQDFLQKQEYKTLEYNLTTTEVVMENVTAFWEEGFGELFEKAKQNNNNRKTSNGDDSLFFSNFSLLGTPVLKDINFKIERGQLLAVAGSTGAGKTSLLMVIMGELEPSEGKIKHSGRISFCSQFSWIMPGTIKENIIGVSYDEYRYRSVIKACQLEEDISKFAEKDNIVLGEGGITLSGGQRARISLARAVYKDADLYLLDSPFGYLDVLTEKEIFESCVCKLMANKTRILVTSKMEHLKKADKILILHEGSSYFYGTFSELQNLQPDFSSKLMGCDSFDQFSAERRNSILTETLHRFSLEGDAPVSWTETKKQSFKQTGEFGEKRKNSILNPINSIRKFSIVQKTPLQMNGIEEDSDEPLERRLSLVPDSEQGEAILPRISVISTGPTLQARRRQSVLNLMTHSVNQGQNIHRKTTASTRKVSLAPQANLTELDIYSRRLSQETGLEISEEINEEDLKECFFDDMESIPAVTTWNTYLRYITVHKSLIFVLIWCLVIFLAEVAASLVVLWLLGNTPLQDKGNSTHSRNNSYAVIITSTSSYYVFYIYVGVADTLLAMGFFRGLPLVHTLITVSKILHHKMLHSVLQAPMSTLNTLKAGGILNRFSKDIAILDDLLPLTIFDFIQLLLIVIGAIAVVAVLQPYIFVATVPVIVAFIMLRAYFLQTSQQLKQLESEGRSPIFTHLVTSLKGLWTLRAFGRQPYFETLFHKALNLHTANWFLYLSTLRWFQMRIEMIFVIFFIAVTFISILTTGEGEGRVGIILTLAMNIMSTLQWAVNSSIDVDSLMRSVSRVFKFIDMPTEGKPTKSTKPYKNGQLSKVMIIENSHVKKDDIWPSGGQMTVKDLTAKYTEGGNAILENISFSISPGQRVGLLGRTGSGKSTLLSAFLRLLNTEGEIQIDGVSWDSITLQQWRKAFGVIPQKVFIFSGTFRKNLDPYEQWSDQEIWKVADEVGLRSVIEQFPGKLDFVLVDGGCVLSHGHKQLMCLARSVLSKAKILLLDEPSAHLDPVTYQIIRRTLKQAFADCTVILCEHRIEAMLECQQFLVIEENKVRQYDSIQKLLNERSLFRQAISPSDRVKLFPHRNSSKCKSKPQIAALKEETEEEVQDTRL

With `COc1ccccc1C1(CN[C@H]2[C@H](C(C)(C)C)[C@@H](C(=O)O)N(C(=O)OC(C)C)[C@H]2c2ccccc2)CCOCC1` [Example I-267], the “Maximum % activity (with co-corrector)” value is on record as “+ (<150)” and the Emax was less than 100%. In addition, the EC50 under setting [1] is more than 10 µM. Also, the EC50 under setting [2] lay in the range of 1 to 10 µM.

As for `CC(C)OC(=O)N1[C@H](C(=O)O)[C@@H](C(C)(C)C)[C@H](NCC2CCCN(c3ccc(C(F)(F)F)cc3)C2)[C@@H]1c1ccccc1` (stereo partly shown) [Example I-268], the “Maximum % activity (with co-corrector)” value is “+++ (≥350)” and the Emax was less than 100%. The EC50 under setting [1] was in the range of 1 to 10 µM. Besides, the EC50 under setting [2] lay within 1 to 10 µM.

With `COc1ccc(C(F)(F)F)cc1CN[C@H]1[C@H](C(C)(C)C)[C@@H](C(=O)O)N(C(=O)[C@@H]2CCCO2)[C@H]1c1cccnc1C1CC1` [Example I-269], the “Maximum % activity (with co-corrector)” value is “+++ (≥350)” and the Emax is 100 to 200%. For the same compound, under setting [1], the EC50 was in the range of 1 to 10 µM. For the same compound, the EC50 under setting [2] is 1 to 10 µM.

`COc1ncc(C(F)(F)F)cc1CN[C@H]1[C@H](C(C)(C)C)[C@@H](C(=O)O)N(C(=O)C2CC2)[C@H]1c1ccccc1C(C)C` [Example I-271]: the “Maximum % activity (with co-corrector)” value is “+++ (≥350)” and the Emax is more than 200%. In addition, under setting [1], the EC50 was 1 to 10 µM. Under setting [2], the EC50 is 1 to 10 µM.

Turning to `COc1ncc(C(F)(F)F)cc1CN[C@H]1[C@H](C(C)(C)C)[C@@H](C(=O)O)N(C(=O)C23CC(C2)C3)[C@H]1c1ccccc1C(C)C` [Example I-272], the “Maximum % activity (with co-corrector)” value is “+++ (≥350)” and the Emax is 100 to 200%. Moreover, the EC50 under setting [1] was 1 to 10 µM. The EC50 under setting [2] was less than 1 µM.

Regarding `COc1ncc(C(F)(F)F)cc1CN[C@H]1[C@H](C(C)(C)C)[C@@H](C(=O)O)N(C(=O)C2CCC2)[C@H]1c1ccccc1C(C)C` [Example I-273], the “Maximum % activity (with co-corrector)” value is listed as “+++ (≥350)” and the Emax is more than 200%. For the same compound, the concentration for a half-maximal effect (EC50) under setting [1] lay within 1 to 10 µM. For the same compound, under setting [2], the EC50 was less than 1 µM.

`CCOc1ccc(Br)cc1CN[C@H]1[C@H](C(C)(C)C)[C@@H](C(=O)O)N(C(=O)OC(C)C)[C@H]1c1cccnc1N1CCC1` [Example I-274]: the “Maximum % activity (with co-corrector)” value is given as “+++ (≥350)” and the Emax lay in the range of 100 to 200%. The EC50 under setting [1] was in the range of 1 to 10 µM. For the same compound, the EC50 under setting [2] fell in the range of 1 to 10 µM.

On to `COc1cc(C(F)(F)F)ccc1CN[C@H]1[C@H](C(C)(C)C)[C@@H](C(=O)O)N(C(=O)OC(C)C)[C@H]1c1cccnc1N1CCC1` [Example I-275], for which the “Maximum % activity (with co-corrector)” value was “+++ (≥350)” and the Emax was more than 200%. In addition, under setting [1], the EC50 was in the range of 1 to 10 µM. The EC50 under setting [2] is 1 to 10 µM.

As to `COc1ncccc1NC1CC(N[C@H]2[C@H](C(C)(C)C)[C@@H](C(=O)O)N(C(=O)OC(C)C)[C@H]2c2ccccc2C2CC2)C1` (stereo partly shown) [Example I-276], the “Maximum % activity (with co-corrector)” value is on record as “+++ (≥350)” and the Emax lay within 100 to 200%. Further, the EC50 under setting [1] was 1 to 10 µM. Moreover, the EC50 under setting [2] was 1 to 10 µM.

`COc1ccc(C(C)(C)C)cc1CN[C@H]1[C@H](C(C)(C)C)[C@@H](C(=O)O)N(C(=O)C2CCC2)[C@H]1c1ccccc1C(F)(F)F` [Example I-277]: the “Maximum % activity (with co-corrector)” value is given as “+++ (≥350)” and the Emax was 100 to 200%. In addition, the concentration for a half-maximal effect (EC50) under setting [1] was 1 to 10 µM. Besides, the EC50 under setting [2] fell in the range of 1 to 10 µM.

As to `COc1ncc(C2CCC2)cc1CN[C@H]1[C@H](C(C)(C)C)[C@@H](C(=O)O)N(C(=O)C2CCC2)[C@H]1c1ccccc1C(F)(F)F` [Example I-278], the “Maximum % activity (with co-corrector)” value was “++ (≥150 and <350)”; the Emax is less than 100%. The EC50 under setting [1] fell in the range of 1 to 10 µM. Further, the EC50 under setting [2] fell in the range of 1 to 10 µM.

Take `COc1ccc(C2(C)CCC2)cc1CN[C@H]1[C@H](C(C)(C)C)[C@@H](C(=O)O)N(C(=O)C2CCC2)[C@H]1c1ccccc1C(F)(F)F` [Example I-279]: the “Maximum % activity (with co-corrector)” value is reported as “+++ (≥350)” and the Emax is 100 to 200%. In addition, the EC50 under setting [1] lay within 1 to 10 µM. Also, the EC50 under setting [2] was in the range of 1 to 10 µM.

For the compound `COc1ncc(C(F)(F)F)cc1CN[C@H]1[C@H](C(C)(C)C)[C@@H](C(=O)O)N(C(=O)C2CCC2)[C@H]1c1ccccc1C(F)(F)F` [Example I-280], the “Maximum % activity (with co-corrector)” value was “++ (≥150 and <350)”; the Emax was less than 100%. The EC50 under setting [1] was in the range of 1 to 10 µM. Also, the EC50 under setting [2] lay in the range of 1 to 10 µM.

As to `COc1ncc(C2CCC2)cc1CN[C@H]1[C@H](C(C)(C)C)[C@@H](C(=O)O)N(C(=O)[C@@H]2CCCO2)[C@H]1c1cccnc1N(C)C` [Example I-281], the “Maximum % activity (with co-corrector)” value is on record as “+++ (≥350)” and the Emax lay in the range of 100 to 200%. Besides, under setting [1], the EC50 fell in the range of 1 to 10 µM. Further, the EC50 under setting [2] lay within 1 to 10 µM.

`COc1ccc(C2(C)CCC2)cc1CN[C@H]1[C@H](C(C)(C)C)[C@@H](C(=O)O)N(C(=O)[C@@H]2CCCO2)[C@H]1c1cccnc1N(C)C` [Example I-283]: the “Maximum % activity (with co-corrector)” value is “+++ (≥350)” and the Emax is more than 200%. Moreover, the EC50 under setting [1] is 1 to 10 µM. Also, the EC50 under setting [2] lay in the range of 1 to 10 µM.

With `COc1ccc(C(C)(C)C)cc1CN[C@H]1[C@H](C(C)(C)C)[C@@H](C(=O)O)N(C(=O)[C@@H]2CCCO2)[C@H]1c1cccnc1N(C)C` [Example I-284], the “Maximum % activity (with co-corrector)” value was “+++ (≥350)” and the Emax was more than 200%. The EC50 under setting [1] was in the range of 1 to 10 µM. Besides, the EC50 under setting [2] was in the range of 1 to 10 µM.

Take `CC(C)c1ccccc1[C@H]1[C@@H](NCc2cc(C(C)(C)C)ccc2O)[C@H](C(C)(C)C)[C@@H](C(=O)O)N1C(=O)[C@@H]1CCCO1` [Example I-285]: the “Maximum % activity (with co-corrector)” value is “+ (<150)” and the Emax is less than 100%. Moreover, the EC50 under setting [1] was more than 10 µM. Besides, under setting [2], the EC50 is less than 1 µM.

Turning to `COc1ncc(C2CCC2)cc1CN[C@H]1[C@H](C(C)(C)C)[C@@H](C(=O)O)N(C(=O)[C@@H]2CCCO2)[C@H]1c1ccccc1C(F)(F)F` [Example I-286], the “Maximum % activity (with co-corrector)” value was “+++ (≥350)” and the Emax fell in the range of 100 to 200%. Further, the EC50 under setting [1] was in the range of 1 to 10 µM. Under setting [2], the EC50 was less than 1 µM.

In the case of `COc1ncc(Br)cc1CN[C@H]1[C@H](C(C)(C)C)[C@@H](C(=O)O)N(C(=O)[C@@H]2CCCCO2)[C@H]1c1ccccc1C` [Example I-287], the “Maximum % activity (with co-corrector)” value was “+++ (≥350)” and the Emax was more than 200%. The EC50 under setting [1] was 1 to 10 µM. Besides, the EC50 under setting [2] is less than 1 µM.

`COc1ncc(C(F)(F)F)cc1CN[C@H]1[C@H](C(C)(C)C)[C@@H](C(=O)O)N(C(=O)[C@@H]2CCCCO2)[C@H]1c1ccccc1Br` [Example I-288]: the “Maximum % activity (with co-corrector)” value is on record as “+++ (≥350)” and the Emax was in the range of 100 to 200%. Also, the EC50 under setting [1] lay within 1 to 10 µM. For the same compound, the EC50 under setting [2] was less than 1 µM.

In the case of `COc1cc(C(F)(F)F)ccc1CN[C@H]1[C@H](C(C)(C)C)[C@@H](C(=O)O)N(C(=O)[C@@H]2CCCCO2)[C@H]1c1ccccc1Br` [Example I-289], the “Maximum % activity (with co-corrector)” value is “+++ (≥350)” and the Emax lay in the range of 100 to 200%. For the same compound, the EC50 under setting [1] lay in the range of 1 to 10 µM. Under setting [2], the EC50 is less than 1 µM.

For `COc1ccc(C(F)(F)F)cc1CN[C@H]1[C@H](C(C)(C)C)[C@@H](C(=O)O)N(C(=O)[C@@H]2CCCCO2)[C@H]1c1ccccc1Br` [Example I-290], the “Maximum % activity (with co-corrector)” value is given as “+++ (≥350)” and the Emax was more than 200%. Also, the EC50 under setting [1] was 1 to 10 µM. Also, the 50% effective concentration (EC50) under setting [2] fell in the range of 1 to 10 µM.

For the compound `COc1ncc(C2CCC2)cc1CN[C@H]1[C@H](C(C)(C)C)[C@@H](C(=O)O)N(C(=O)[C@@H]2CCCCO2)[C@H]1c1ccccc1Br` [Example I-291], the “Maximum % activity (with co-corrector)” value is “+++ (≥350)” and the Emax lay within 100 to 200%. Besides, the EC50 under setting [1] was less than 1 µM. For the same compound, the EC50 under setting [2] was less than 1 µM.

Take `COc1ncc(C(F)(F)F)cc1CN[C@H]1[C@H](C(C)(C)C)[C@@H](C(=O)O)N(C(=O)[C@@H]2CCCO2)[C@H]1c1ccccc1Br` [Example I-292]: the “Maximum % activity (with co-corrector)” value is “+++ (≥350)” and the Emax was 100 to 200%. Moreover, the EC50 under setting [1] lay in the range of 1 to 10 µM. Also, the concentration for a half-maximal effect (EC50) under setting [2] was less than 1 µM.

With `COc1ncc(C2CC2)cc1CN[C@H]1[C@H](C(C)(C)C)[C@@H](C(=O)O)N(C(=O)[C@@H]2CCCO2)[C@H]1c1ccccc1Br` [Example I-293], the “Maximum % activity (with co-corrector)” value was “+++ (≥350)” and the Emax was more than 200%. The EC50 under setting [1] was 1 to 10 µM. Further, under setting [2], the EC50 lay in the range of 1 to 10 µM.

In the case of `COc1ccc(C(C)(C)C)cc1CN[C@H]1[C@H](C(C)(C)C)[C@@H](C(=O)O)N(C(=O)[C@@H]2CCCO2)[C@H]1c1ccccc1Br` [Example I-294], the “Maximum % activity (with co-corrector)” value is listed as “+++ (≥350)” and the Emax is more than 200%. The EC50 under setting [1] fell in the range of 1 to 10 µM. The EC50 under setting [2] is less than 1 µM.

With `COc1ccc(C2(C)CCC2)cc1CN[C@H]1[C@H](C(C)(C)C)[C@@H](C(=O)O)N(C(=O)[C@@H]2CCCO2)[C@H]1c1ccccc1Br` [Example I-295], the “Maximum % activity (with co-corrector)” value was “+++ (≥350)” and the Emax was more than 200%. Under setting [1], the EC50 lay in the range of 1 to 10 µM. Further, under setting [2], the EC50 is less than 1 µM.

Regarding `COc1ncc(C2CCC2)cc1CN[C@H]1[C@H](C(C)(C)C)[C@@H](C(=O)O)N(C(=O)[C@@H]2CCCCO2)[C@H]1c1ccccc1C1CC1` [Example I-296], the “Maximum % activity (with co-corrector)” value is reported as “+++ (≥350)” and the Emax was more than 200%. Moreover, under setting [1], the EC50 is 1 to 10 µM. Besides, the EC50 under setting [2] was 1 to 10 µM.

The values are drawn from US20180099931A1 (AbbVie S.à.r.l., priority 2016, published 2018).
